According to ChEMBL document CHEMBL5608186, “Design, synthesis and structure-activity relationships of novel non-ketolides: 9-Oxime clarithromycin featured with seven-to thirteen-atom-length diamine linkers at 3-OH” (Eur J Med Chem, 2024):
Converted amounts (≈) assume the structure as drawn.

Tests used:
Format in all cases: functional
Streptococcus pyogenes [1] = experiment: Selectivity ratio of MBC for Streptococcus pyogenes 01-968 harboring i-ermB gene to MIC for Streptococcus pyogenes 01-968 harboring i-ermB gene
Haemophilus influenzae [2] = experiment: Selectivity ratio of MBC for Haemophilus influenzae ATCC 49247 to MIC for Haemophilus influenzae ATCC 49247
Streptococcus pneumoniae [3] = experiment: Bactericidal activity against Streptococcus pneumoniae 07P390 harboring c-erm gene incubated for 16 to 20 hrs by CLSI based broth microdilution method; settings: time 16-20 hrs
Streptococcus pneumoniae [4] = experiment: Antibacterial activity against Streptococcus pneumoniae 07P390 harboring c-erm gene incubated for 16 to 20 hrs by CLSI based broth microdilution method; settings: time 16-20 hrs
Streptococcus pneumoniae [5] = experiment: Selectivity ratio of MBC for Streptococcus pneumoniae PU 09 harboring mef gene to MIC for Streptococcus pneumoniae PU 09 harboring mef gene
Streptococcus pneumoniae [6] = experiment: Selectivity ratio of MBC for Streptococcus pneumoniae ATCC 49619 to MIC for Streptococcus pneumoniae ATCC 49619
Staphylococcus aureus [7] = experiment: Selectivity ratio of MBC for methicillin-resistant Staphylococcus aureus PU 32 harboring i-ermA gene to MIC for methicillin-resistant Staphylococcus aureus PU 32 harboring i-ermA gene
Staphylococcus aureus [8] = experiment: Antibacterial activity against methicillin-resistant Staphylococcus aureus PU 20 harboring c-ermA gene incubated for 16 to 20 hrs by CLSI based broth microdilution method; settings: time 16-20 hrs
Staphylococcus aureus [9] = experiment: Bactericidal activity against methicillin-resistant Staphylococcus aureus PU 20 harboring c-ermA gene incubated for 16 to 20 hrs by CLSI based broth microdilution method; settings: time 16-20 hrs
Staphylococcus aureus [10] = experiment: Bactericidal activity against methicillin-resistant Staphylococcus aureus PU 32 harboring i-ermA gene incubated for 16 to 20 hrs by CLSI based broth microdilution method; settings: time 16-20 hrs
Staphylococcus aureus [11] = experiment: Antibacterial activity against methicillin-resistant Staphylococcus aureus PU 32 harboring i-ermA gene incubated for 16 to 20 hrs by CLSI based broth microdilution method; settings: time 16-20 hrs
Streptococcus pyogenes [12] = experiment: Bactericidal activity against Streptococcus pyogenes 01-968 harboring i-ermB gene incubated for 16 to 20 hrs by CLSI based broth microdilution method; settings: time 16-20 hrs
Streptococcus pyogenes [13] = experiment: Antibacterial activity against Streptococcus pyogenes 01-968 harboring i-ermB gene incubated for 16 to 20 hrs by CLSI based broth microdilution method; settings: time 16-20 hrs
Haemophilus influenzae [14] = experiment: Bactericidal activity against Haemophilus influenzae ATCC 49247 incubated for 16 to 20 hrs by CLSI based broth microdilution method; settings: time 16-20 hrs
Haemophilus influenzae [15] = experiment: Antibacterial activity against Haemophilus influenzae ATCC 49247 incubated for 16 to 20 hrs by CLSI based broth microdilution method; settings: time 16-20 hrs
Streptococcus pneumoniae [16] = experiment: Bactericidal activity against Streptococcus pneumoniae PU 09 harboring mef gene incubated for 16 to 20 hrs by CLSI based broth microdilution method; settings: time 16-20 hrs
Streptococcus pneumoniae [17] = experiment: Antibacterial activity against Streptococcus pneumoniae PU 09 harboring mef gene incubated for 16 to 20 hrs by CLSI based broth microdilution method; settings: time 16-20 hrs
Streptococcus pneumoniae [18] = experiment: Bactericidal activity against Streptococcus pneumoniae ATCC 49619 incubated for 16 to 20 hrs by CLSI based broth microdilution method; settings: time 16-20 hrs
Streptococcus pneumoniae [19] = experiment: Antibacterial activity against Streptococcus pneumoniae ATCC 49619 incubated for 16 to 20 hrs by CLSI based broth microdilution method; settings: time 16-20 hrs
Streptococcus pneumoniae [20] = experiment: Selectivity ratio of MBC for Streptococcus pneumoniae 07P390 harboring c-erm gene to MIC for Streptococcus pneumoniae 07P390 harboring c-erm gene

SMILES | Selectivity ratio (Streptococcus pyogenes [1]) | Selectivity ratio (Haemophilus influenzae [2]) | MBC (Streptococcus pneumoniae [3]) [µg/mL] | MIC (Streptococcus pneumoniae [4]) [µg/mL] | Selectivity ratio (Streptococcus pneumoniae [5]) | Selectivity ratio (Streptococcus pneumoniae [6]) | Selectivity ratio (Staphylococcus aureus [7]) | MIC (Staphylococcus aureus [8]) [µg/mL] | MBC (Staphylococcus aureus [9]) [µg/mL] | MBC (Staphylococcus aureus [10]) [µg/mL] | MIC (Staphylococcus aureus [11]) [µg/mL] | MBC (Streptococcus pyogenes [12]) [µg/mL] | MIC (Streptococcus pyogenes [13]) [µg/mL] | MBC (Haemophilus influenzae [14]) [µg/mL] | MIC (Haemophilus influenzae [15]) [µg/mL] | MBC (Streptococcus pneumoniae [16]) [µg/mL] | MIC (Streptococcus pneumoniae [17]) [µg/mL] | MBC (Streptococcus pneumoniae [18]) [µg/mL] | MIC (Streptococcus pneumoniae [19]) [µg/mL] | Selectivity ratio (Streptococcus pneumoniae [20])
CC[C@H]1OC(=O)[C@H](C)[C@@H](OC(=O)CCNCCCc2ccc3c(c2)c(=O)c(C(=O)O)cn3C2CC2)[C@H](C)[C@@H](O[C@@H]2O[C@H](C)C[C@H](N(C)C)[C@H]2O)[C@](C)(OC)C[C@@H](C)/C(=N\OC)[C@H](C)[C@H]2OC(=O)O[C@@]21C | 1 | 2 | > 32 | 16 (≈ 16.2 µM) | 1 | 2 |  |  |  |  |  |  |  |  |  |  |  |  |  | 
CC[C@H]1OC(=O)[C@H](C)[C@@H](OC(=O)NCCCc2ccc3c(c2)c(=O)c(C(=O)O)cn3C2CC2)[C@H](C)[C@@H](O[C@@H]2O[C@H](C)C[C@H](N(C)C)[C@H]2O)[C@](C)(OC)C[C@@H](C)/C(=N\OC)[C@H](C)[C@H]2OC(=O)O[C@@]21C | 2 | 1 |  | > 32 | 4 | 2 | >8 |  |  |  |  |  |  |  |  |  |  |  |  | 
CC[C@H]1OC(=O)[C@H](C)[C@@H](OC(=O)CCNCCNc2cc3c(=O)c(C(=O)O)cn(C4CC4)c3cc2Cl)[C@H](C)[C@@H](O[C@@H]2O[C@H](C)C[C@H](N(C)C)[C@H]2O)[C@](C)(OC)C[C@@H](C)/C(=N\OC)[C@H](C)[C@H]2OC(=O)O[C@@]21C | 2 | 1 |  | > 32 | 1 | 2 |  | > 256 |  |  |  |  |  |  |  |  |  |  |  | 
C#CCO/N=C1\[C@H](C)C[C@@](C)(OC)[C@H](O[C@@H]2O[C@H](C)C[C@H](N(C)C)[C@H]2O)[C@@H](C)[C@H](OC(=O)CCN2CCN(c3cc4c(cc3F)c(=O)c(C(=O)O)cn4C3CC3)CC2)[C@@H](C)C(=O)O[C@H](CC)[C@@]2(C)OC(=O)O[C@@H]2[C@H]1C | 2 | 1 | > 32 | 32 (≈ 30.4 µM) | 2 | 1 | >4 | 256 (≈ 243 µM) | > 256 | > 256 | 64 (≈ 60.7 µM) | 8 (≈ 7.59 µM) | 4 (≈ 3.79 µM) | 1 (≈ 0.949 µM) | 1 (≈ 0.949 µM) | 2 (≈ 1.9 µM) | 1 (≈ 0.949 µM) | 0.5 (≈ 0.474 µM) | 0.5 (≈ 0.474 µM) | 
CC[C@H]1OC(=O)[C@H](C)[C@@H](OC(=O)CCN2CCN(c3cc4c(cc3F)c(=O)c(C(N)=O)cn4C3CC3)CC2)[C@H](C)[C@@H](O[C@@H]2O[C@H](C)C[C@H](N(C)C)[C@H]2O)[C@](C)(OC)C[C@@H](C)/C(=N\OCC#Cc2cncc(C(=O)NC)c2)[C@H](C)[C@H]2OC(=O)O[C@@]21C | >8 |  | > 256 | 256 (≈ 216 µM) | 4 | 4 |  | > 256 | > 256 | > 256 | 256 (≈ 216 µM) | > 256 | 32 (≈ 27 µM) | > 256 | > 256 | 4 (≈ 3.37 µM) | 1 (≈ 0.842 µM) | 1 (≈ 0.842 µM) | 0.25 (≈ 0.211 µM) | 
CC[C@H]1OC(=O)[C@H](C)[C@@H](OC(=O)CCNCCCCCCCCNc2cc3c(=O)c(C(=O)O)cn(C4CC4)c3cc2Cl)[C@H](C)[C@@H](O[C@@H]2O[C@H](C)C[C@H](N(C)C)[C@H]2O)[C@](C)(OC)C[C@@H](C)/C(=N\OC)[C@H](C)[C@H]2OC(=O)O[C@@]21C | >8 |  |  | > 32 | 1 | 1 |  | 128 (≈ 116 µM) | > 256 | > 256 | 128 (≈ 116 µM) | > 32 | 4 (≈ 3.62 µM) |  | > 256 | 16 (≈ 14.5 µM) | 16 (≈ 14.5 µM) | 2 (≈ 1.81 µM) | 2 (≈ 1.81 µM) | 
CC[C@H]1OC(=O)[C@H](C)[C@@H](OC(=O)CCNCCCCNc2cc3c(cc2F)c(=O)c(C(=O)O)cn3C2CC2)[C@H](C)[C@@H](O[C@@H]2O[C@H](C)C[C@H](N(C)C)[C@H]2O)[C@](C)(OC)C[C@@H](C)/C(=N\OCC#Cc2ccc3c(c2)c(=O)c(C(N)=O)cn3CC)[C@H](C)[C@H]2OC(=O)O[C@@]21C | >8 | 1 | 8 (≈ 6.3 µM) | 2 (≈ 1.57 µM) | 1 | 1 |  | > 256 | > 256 | > 256 | 128 (≈ 101 µM) | > 8 | 1 (≈ 0.787 µM) | 8 (≈ 6.3 µM) | 8 (≈ 6.3 µM) | 0.25 (≈ 0.197 µM) | 0.25 (≈ 0.197 µM) | 0.12 (≈ 0.0945 µM) | 0.12 (≈ 0.0945 µM) | 4
CC[C@H]1OC(=O)[C@H](C)[C@@H](OC(=O)CCN2CCN(c3cc4c(cc3F)c(=O)c(C(=O)O)cn4C3CC3)CC2)[C@H](C)[C@@H](O[C@@H]2O[C@H](C)C[C@H](N(C)C)[C@H]2O)[C@](C)(OC)C[C@@H](C)/C(=N\OC)[C@H](C)[C@H]2OC(=O)O[C@@]21C | 8 | 2 |  | > 32 | 4 | 1 | >4 | 256 (≈ 248 µM) | > 256 | > 256 | 64 (≈ 62.1 µM) | 8 (≈ 7.77 µM) | 1 (≈ 0.971 µM) | 2 (≈ 1.94 µM) | 1 (≈ 0.971 µM) | 2 (≈ 1.94 µM) | 0.5 (≈ 0.485 µM) | 0.25 (≈ 0.243 µM) | 0.25 (≈ 0.243 µM) | 
CC[C@H]1OC(=O)[C@H](C)[C@@H](OC(=O)CCN2CCN(c3cc4c(cc3F)c(=O)c(C(=O)O)cn4C3CC3)CC2)[C@H](C)[C@@H](O[C@@H]2O[C@H](C)C[C@H](N(C)C)[C@H]2O)[C@](C)(OC)C[C@@H](C)/C(=N\OCC#Cc2cncc3ccccc23)[C@H](C)[C@H]2OC(=O)O[C@@]21C | 2 | 1 |  | > 32 | 2 | 1 |  | > 256 |  |  | > 256 | 64 (≈ 54.2 µM) | 32 (≈ 27.1 µM) | 1 (≈ 0.846 µM) | 1 (≈ 0.846 µM) | 32 (≈ 27.1 µM) | 16 (≈ 13.5 µM) | 4 (≈ 3.39 µM) | 4 (≈ 3.39 µM) | 
CC[C@H]1OC(=O)[C@H](C)[C@@H](O[C@H]2C[C@@](C)(OC)[C@@H](O)[C@H](C)O2)[C@H](C)[C@@H](O[C@@H]2O[C@H](C)C[C@H](N(C)C)[C@H]2O)[C@](C)(OC)C[C@@H](C)C(=O)[C@H](C)[C@@H](O)[C@]1(C)O [CLARITHROMYCIN] | >8 | 2 |  | > 32 | 8 | 4 | >8 | > 256 |  |  |  | > 64 | 8 (≈ 10.7 µM) |  |  | 32 (≈ 42.8 µM) |  | 0.25 (≈ 0.334 µM) | 0.062 (≈ 0.0829 µM) | 
